This passage reports T/C results from PubChem BioAssay AID180 (DTP/NCI, 2004).

The test system of the assay is BDF1 mice, Adenocarcinoma 755 s.c., tumor weight T/C. Kind of assay: NCI In Vivo Anticancer Drug Screen. Data for tumor model Adenocarcinoma 755 (subcutaneous) in B6D2F1 (BDF1) mice. The note with it: endpoint: mean tumor weight, higher = larger tumour. Put shortly:
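Compound activity was tested in mice carrying transplanted tumors. Survival or tumor size was measured, and each value is the treated-group measurement divided by that of the vehicle-treated control group (T/C).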

[1] abbreviates: dose: 25.0 mg/kg/injection, schedule: Q01DX011 (ip), vehicle: methylcellulose (MC).
[2] abbreviates: dose: 75.0 mg/kg/injection, schedule: Q01DX011 (ip), vehicle: methylcellulose (MC).
Where [3] appears, read: dose: 225.0 mg/kg/injection, schedule: Q01DX011 (ip), vehicle: methylcellulose (MC).
[4] abbreviates: dose: 3.12 mg/kg/injection, schedule: Q01DX011 (ip), vehicle: other.
Setting [5] is: dose: 6.25 mg/kg/injection, schedule: Q01DX011 (ip), vehicle: other.
Where [6] appears, read: dose: 12.5 mg/kg/injection, schedule: Q01DX011 (ip), vehicle: other.

A word on the T/C: it is the ratio of treated to control.

Where “and” joins values, the source holds several entries; their conditions need not be identical. Identical values can stand only once.

In the case of `CCOC(C)C(/C=N/NC(N)=S)=NNC(N)=S` (stereo not given), the T/C reads like this: (dose: 15.0 mg/kg/injection, schedule: Q01DX011 (ip), vehicle: saline) 49 % of control; (dose: 30.0 mg/kg/injection, schedule: Q01DX011 (ip), vehicle: saline) 109 % of control; (dose: 60.0 mg/kg/injection, schedule: Q01DX011 (ip), vehicle: saline) 117 % of control; (dose: 120.0 mg/kg/injection, schedule: Q01DX011 (ip), vehicle: saline) 71 % of control.

As to `O=c1[nH]cnc2c1ncn2C1CCCO1` (stereo not given), the T/C runs as follows: (dose: 30.0 mg/kg/injection, schedule: Q01DX011 (ip), vehicle: carboxymethylcellulose (CMC)) 80 % of control; (dose: 60.0 mg/kg/injection, schedule: Q01DX011 (ip), vehicle: carboxymethylcellulose (CMC)) 105 % of control; (dose: 120.0 mg/kg/injection, schedule: Q01DX011 (ip), vehicle: carboxymethylcellulose (CMC)) 106 % of control; (dose: 240.0 mg/kg/injection, schedule: Q01DX011 (ip), vehicle: carboxymethylcellulose (CMC)) 75 % of control.

`COc1ccc2c3c([nH]c2c1)[C@H]1C[C@H]2[C@H](C[C@@H](O)[C@H](OC)[C@H]2CO)CN1CC3`: the T/C (dose: 0.5 mg/kg/injection, schedule: Q01DX011 (ip), vehicle: saline) is 91 % of control; the T/C (dose: 1.0 mg/kg/injection, schedule: Q01DX011 (ip), vehicle: saline) is 95 % of control; the T/C (dose: 2.0 mg/kg/injection, schedule: Q01DX011 (ip), vehicle: saline) was 92 % of control.

With `CS(=O)(=O)OCC1OC(OCc2ccccc2)CC1O` (stereo not given), for the setting “dose: 25.0 mg/kg/injection, schedule: Q01DX011 (ip), vehicle: saline”, the T/C was 102 % of control.

`CC(=O)Nc1nc(SCc2ccccc2)c2[nH]cnc2n1`: for the setting “dose: 12.5 mg/kg/injection, schedule: Q01DX011 (ip), vehicle: methylcellulose (MC)”, the T/C is 8 % of control.

As to `C=CCC1(CCC)C(=O)NC(=O)NC1=O`, the T/C is 79 % of control and 86 % of control (dose: 17.5 mg/kg/injection, schedule: Q01DX011 (ip), vehicle: methylcellulose (MC)); 23 % of control and 41 % of control (dose: 70.0 mg/kg/injection, schedule: Q01DX011 (ip), vehicle: methylcellulose (MC)); 42 % of control (dose: 140.0 mg/kg/injection, schedule: Q01DX011 (ip), vehicle: methylcellulose (MC)).

As for `Cn1c(=O)c2c(nc(C#N)n2C)n(C)c1=O`, the T/C is, setting by setting: under setting [1], 104 % of control; under setting [2], 102 % of control; under setting [3], 58 % of control.

On to `O=P(N1CC=CCC1)(N1CC1)N1CC1`, for which the T/C is 75 % of control (dose: 0.03 mg/kg/injection, schedule: Q01DX011 (ip), vehicle: saline); 81 % of control (dose: 0.05 mg/kg/injection, schedule: Q01DX011 (ip), vehicle: saline); 114 % of control (dose: 0.1 mg/kg/injection, schedule: Q01DX011 (ip), vehicle: saline); 100 % of control (dose: 0.2 mg/kg/injection, schedule: Q01DX011 (ip), vehicle: saline); 120 % of control (dose: 25.0 micrograms/kg/injection, schedule: Q01DX011 (ip), vehicle: saline); 94 % of control (dose: 50.0 micrograms/kg/injection, schedule: Q01DX011 (ip), vehicle: saline). Also, the T/C reads like this: (dose: 100.0 micrograms/kg/injection, schedule: Q01DX011 (ip), vehicle: saline) 114 % of control; (dose: 200.0 micrograms/kg/injection, schedule: Q01DX011 (ip), vehicle: saline) 106 % of control.

Take `CC(=O)N(c1ccccc1)c1ccccc1`: the T/C runs as follows: under setting [4], 83 % of control; under setting [5], 92 % of control; under setting [6], 80 % of control; (dose: 25.0 mg/kg/injection, schedule: Q01DX011 (ip), vehicle: other) 97 % of control.

On to `Brc1ncnc2c1ncn2C1CCCS1` (stereo not given), for which the T/C was 75 % of control under setting [1], 66 % of control under setting [2] and 86 % of control under setting [3].

`CC(C)Cn1cnc2c(SCc3ccccc3F)nc(N)nc21`: the T/C (dose: 18.75 mg/kg/injection, schedule: Q01DX011 (ip), vehicle: methylcellulose (MC)) was 80 % of control; the T/C (dose: 37.5 mg/kg/injection, schedule: Q01DX011 (ip), vehicle: methylcellulose (MC)) was 65 % of control; the T/C (dose: 150.0 mg/kg/injection, schedule: Q01DX011 (ip), vehicle: methylcellulose (MC)) was 28 % of control.

Regarding `CCCC(=O)OCC1OC(n2cnc3c(=S)nc[nH]c32)C(OC(=O)CCC)C1OC(=O)CCC` (stereo not given), the T/C (dose: 3.0 mg/kg/injection, schedule: Q01DX011 (ip), vehicle: other) was 48 % of control; the T/C under setting [4] was 75 % of control; the T/C (dose: 6.0 mg/kg/injection, schedule: Q01DX011 (ip), vehicle: other) was 16 % of control; the T/C under setting [5] is 13 % of control; the T/C (dose: 12.0 mg/kg/injection, schedule: Q01DX011 (ip), vehicle: other) is 6 % of control; the T/C under setting [6] was 4 % of control.

In the case of `C[C@H]1C[C@@H]2[C@H]([C@@H](O)C[C@@]3(C)[C@H]2CC[C@]3(O)C(=O)CF)[C@@]2(C)C=CC(=O)C=C12`, the T/C was 82 % of control (dose: 2.5 mg/kg/injection, schedule: Q01DX011 (sc), vehicle: steriod suspending solution); 57 % of control (dose: 5.0 mg/kg/injection, schedule: Q01DX011 (sc), vehicle: steriod suspending solution); 48 % of control (dose: 10.0 mg/kg/injection, schedule: Q01DX011 (sc), vehicle: steriod suspending solution); 64 % of control (dose: 21.0 mg/kg/injection, schedule: Q01DX011 (sc), vehicle: steriod suspending solution); 91 % of control (dose: 25.0 mg/kg/injection, schedule: Q01DX011 (sc), vehicle: steriod suspending solution); 39 % of control (dose: 42.0 mg/kg/injection, schedule: Q01DX011 (sc), vehicle: saline). The T/C runs as follows: (dose: 42.0 mg/kg/injection, schedule: Q01DX011 (sc), vehicle: steriod suspending solution) 12 % of control and 25 % of control (2×); (dose: 50.0 mg/kg/injection, schedule: Q01DX011 (sc), vehicle: steriod suspending solution) 59 % of control; (dose: 84.0 mg/kg/injection, schedule: Q01DX011 (sc), vehicle: saline) 61 % of control; (dose: 84.0 mg/kg/injection, schedule: Q01DX011 (sc), vehicle: steriod suspending solution) 9 % of control; (dose: 100.0 mg/kg/injection, schedule: Q01DX011 (sc), vehicle: steriod suspending solution) 55 % of control; (dose: 168.0 mg/kg/injection, schedule: Q01DX011 (sc), vehicle: saline) 19 % of control. The T/C was 1 % of control (dose: 168.0 mg/kg/injection, schedule: Q01DX011 (sc), vehicle: steriod suspending solution); 57 % of control (dose: 200.0 mg/kg/injection, schedule: Q01DX011 (sc), vehicle: steriod suspending solution); 19 % of control (dose: 336.0 mg/kg/injection, schedule: Q01DX011 (sc), vehicle: saline); 23 % of control (dose: 400.0 mg/kg/injection, schedule: Q01DX011 (sc), vehicle: steriod suspending solution); 39 % of control (dose: 500.0 mg/kg/injection, schedule: Q01DX011 (sc), vehicle: steriod suspending solution); 37 % of control (dose: 600.0 mg/kg/injection, schedule: Q01DX011 (sc), vehicle: steriod suspending solution). Further, under “dose: 700.0 mg/kg/injection, schedule: Q01DX011 (sc), vehicle: steriod suspending solution”, the T/C is 17 % of control.

As for `O=C(O)CCc1c[nH]c2ccc(N(CCCl)CCCl)cc12`, the T/C (dose: 1.2 mg/kg/injection, schedule: Q01DX011 (ip), vehicle: carboxymethylcellulose (CMC)) is 90 % of control; the T/C (dose: 2.5 mg/kg/injection, schedule: Q01DX011 (ip), vehicle: carboxymethylcellulose (CMC)) is 64 % of control; the T/C (dose: 5.0 mg/kg/injection, schedule: Q01DX011 (ip), vehicle: carboxymethylcellulose (CMC)) is 74 % of control.
